Laboratory results taken from EP4818168A1, “FUSED RING COMPOUND, PHARMACEUTICAL COMPOSITION THEREOF AND USE THEREOF” (priority 2023, dated 2025).

Biological target: T1, AURKA (Homo sapiens, UniProt O14965)
T1 construct: endogenous in cells; host or cells: Jurkat cells
T1 sequence (O14965 1-403): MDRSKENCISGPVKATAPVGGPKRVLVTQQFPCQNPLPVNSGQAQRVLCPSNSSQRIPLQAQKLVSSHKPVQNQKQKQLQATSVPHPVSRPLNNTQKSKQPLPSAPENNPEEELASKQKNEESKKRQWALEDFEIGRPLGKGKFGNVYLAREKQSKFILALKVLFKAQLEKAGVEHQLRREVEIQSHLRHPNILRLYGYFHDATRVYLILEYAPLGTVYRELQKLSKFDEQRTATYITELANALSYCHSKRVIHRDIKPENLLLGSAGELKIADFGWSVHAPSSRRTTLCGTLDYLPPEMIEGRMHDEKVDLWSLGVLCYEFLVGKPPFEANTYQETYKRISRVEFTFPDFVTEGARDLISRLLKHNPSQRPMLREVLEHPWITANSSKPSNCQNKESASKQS
Assay: not given
Format: cell-based
Conditions: 100 nM compound, Jurkat cells, 24 h, Table 1
Summary of the method: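 Jurkat cells seeded at 1×10^6 cells/500 µL and treated with compound; lysates run on SDS-PAGE, blotted to nitrocellulose and probed overnight at 4°C for AURKA. Chemiluminescent or fluorescent band intensity fitted to a curve to give DC50 for protein degradation.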

Row | SMILES | Percentage of AURKA Degradation Induced by 100 nM Compound in Jurkat Cells
1 | O=C1CCN(c2ccc(N3CCN(C4CN(C(=O)c5ccc(Nc6ncc7c(n6)-c6ccc(Cl)cc6C(c6c(F)cccc6F)=NC7)cc5)C4)CC3)cc2)C(=O)N1 [Compound A19] | ++ (30% < Degradation ≤ 70%)
2 | COc1cc(Nc2ncc3c(n2)-c2ccc(Cl)cc2C(c2c(F)cccc2OC)=NC3)ccc1C(=O)N1CC2(CCN(c3ccc(N4CCC(=O)NC4=O)cc3)CC2)C1 [Compound A42] | + (Degradation ≤ 30%)

Same assay, conditions: 100 nM compound, Jurkat cells, 24 h, Table 2

Row | SMILES | Percentage of AURKA Degradation Induced by 100 nM Compound in Jurkat Cells
3 | COc1cccc(F)c1C1=NCc2cnc(Nc3ccc(N4CC(CN5CCN(c6ccc(N7CCC(=O)NC7=O)cn6)CC5)C4)cc3)nc2-c2ccc(Cl)cc21 [Compound A253] | +++ (Degradation > 70%)
4 | O=C1CCN(c2ccc(N3CCC(C4CCN(C(=O)C56CC(Nc7ncc8c(n7)-c7ccc(Cl)cc7C(c7c(F)cccc7F)=NC8)(C5)C6)CC4)CC3)nc2)C(=O)N1 [Compound A273] | +++ (Degradation > 70%)
5 | O=C1CCN(c2cccc(N3CCN(CCC#Cc4cccc(Nc5ncc6c(n5)-c5ccc(Cl)cc5C(c5c(F)cccc5F)=NC6)c4)CC3)c2)C(=O)N1 [Compound A100] | ++ (30% < Degradation ≤ 70%)
6 | O=C1CCN(c2ccc(N3CCC(CN4CCN(C56CC(Nc7ncc8c(n7)-c7ccc(Cl)cc7C(c7c(F)cccc7F)=NC8)(C5)C6)CC4)C3)nc2)C(=O)N1 (centres unmarked) [Compound A231] | +++ (Degradation > 70%)
7 | O=C1CCN(c2ccc(N3CC(CN4CCN(C56CC(Nc7ncc8c(n7)-c7ccc(Cl)cc7C(c7c(F)cccc7F)=NC8)(C5)C6)CC4)C3)nc2)C(=O)N1 [Compound A219] | +++ (Degradation > 70%)
8 | Cc1c(N2CC(CN3CCc4ccc(Nc5ncc6c(n5)-c5ccc(Cl)cc5C(c5c(F)cccc5F)=NC6)cc4C3)C2)cccc1N1CCC(=O)NC1=O [Compound A176] | +++ (Degradation > 70%)
9 | O=C1CCN(c2cccc(C3CN(CC#Cc4cccc(Nc5ncc6c(n5)-c5ccc(Cl)cc5C(c5c(F)cccc5F)=NC6)c4)C3)c2)C(=O)N1 [Compound A126] | + (Degradation ≤ 30%)

Same assay, conditions: 1 µM compound, Jurkat cells, 24 h, Table 1

Row | SMILES | Percentage of AURKA Degradation Induced by 1 µM Compound in Jurkat Cells
10 | O=C1CCN(c2ccc(N3CCN(C4CN(C(=O)c5ccc(Nc6ncc7c(n6)-c6ccc(Cl)cc6C(c6c(F)cccc6F)=NC7)cc5)C4)CC3)cc2)C(=O)N1 [Compound A19] | + (Degradation ≤ 30%)
11 | COc1cc(Nc2ncc3c(n2)-c2ccc(Cl)cc2C(c2c(F)cccc2OC)=NC3)ccc1C(=O)N1CC2(CCN(c3ccc(N4CCC(=O)NC4=O)cc3)CC2)C1 [Compound A42] | + (Degradation ≤ 30%)

Same assay, conditions: 1 µM compound, Jurkat cells, 24 h, Table 2

Row | SMILES | Percentage of AURKA Degradation Induced by 1 µM Compound in Jurkat Cells
12 | COc1cccc(F)c1C1=NCc2cnc(Nc3ccc(N4CC(CN5CCN(c6ccc(N7CCC(=O)NC7=O)cn6)CC5)C4)cc3)nc2-c2ccc(Cl)cc21 [Compound A253] | +++ (Degradation > 70%)
13 | O=C1CCN(c2ccc(N3CCC(C4CCN(C(=O)C56CC(Nc7ncc8c(n7)-c7ccc(Cl)cc7C(c7c(F)cccc7F)=NC8)(C5)C6)CC4)CC3)nc2)C(=O)N1 [Compound A273] | +++ (Degradation > 70%)
14 | O=C1CCN(c2cccc(N3CCN(CCC#Cc4cccc(Nc5ncc6c(n5)-c5ccc(Cl)cc5C(c5c(F)cccc5F)=NC6)c4)CC3)c2)C(=O)N1 [Compound A100] | ++ (30% < Degradation ≤ 70%)
15 | O=C1CCN(c2ccc(N3CCC(CN4CCN(C56CC(Nc7ncc8c(n7)-c7ccc(Cl)cc7C(c7c(F)cccc7F)=NC8)(C5)C6)CC4)C3)nc2)C(=O)N1 (centres unmarked) [Compound A231] | +++ (Degradation > 70%)
16 | O=C1CCN(c2ccc(N3CC(CN4CCN(C56CC(Nc7ncc8c(n7)-c7ccc(Cl)cc7C(c7c(F)cccc7F)=NC8)(C5)C6)CC4)C3)nc2)C(=O)N1 [Compound A219] | +++ (Degradation > 70%)
17 | Cc1c(N2CC(CN3CCc4ccc(Nc5ncc6c(n5)-c5ccc(Cl)cc5C(c5c(F)cccc5F)=NC6)cc4C3)C2)cccc1N1CCC(=O)NC1=O [Compound A176] | +++ (Degradation > 70%)
18 | O=C1CCN(c2cccc(C3CN(CC#Cc4cccc(Nc5ncc6c(n5)-c5ccc(Cl)cc5C(c5c(F)cccc5F)=NC6)c4)C3)c2)C(=O)N1 [Compound A126] | + (Degradation ≤ 30%)

Test system: HCC1806 cells
Assay: CTG assay of compound inhibition on cell viability (HCC1806 cells)
Format: cell-based
Conditions: Homo sapiens, HCC1806, 144 h, read-out: IC50 in HCC1806 Cells
Protocol: CellTiter-Glo (CTG) is a rapid cell viability test method based on ATP detection. […] Adenosine triphosphate (ATP) participates in various enzymatic reactions in organisms and is an indicator of living cell metabolism. Its content directly reflects the number of living cells and cell status. During the experiment, equal volume of CTG reagent is added to the cultured cells to measure the luminescence value. The chemiluminescent signal value is proportional to the amount of ATP, thus reflecting the number of viable cells. Therefore, cell viability can be obtained by detecting the ATP content. Compounds that affect cell viability will inhibit cell viability in a concentration-dependent manner, allowing a curve to be fitted to obtain the IC50 value.
The experimental procedure is as follows: • 11. Place the cell suspension in a 15 mL centrifuge tube, centrifuge at 1000 rpm for 5 min at room temperature, discard the supernatant, and collect the cell pellet. • 12. Resuspend the cell pellet with preheated complete cell culture medium (RPMI1640+10%FBS+1%PS), and use a Countess® automated cell counter to detect cell viability and density. The cell viability must be above 90%. • 13. […] Transfer the compound solution to a 96-well plate seeded with cells (final concentration of DMSO 0.1%), and place in a cell incubator at 37°C, 5% CO2 for 6 days. • 15. […] Protect from light during the whole process. Perform optical signal readings using a SpectraMax i3x reader. • 16. Data analysis: Remaining activity (%) = 100% * (1 - ((LumDMSO - Lummedium) - Lumsample) / (LumDMSO - LumPBS/medium)). Use GraphPad Prism 9.0 software to draw an S-shaped dose-survival rate curve and calculate the IC50 value using a nonlinear regression model.

Row | SMILES | IC50 [nM]
19 | O=C1CCN(c2ccc(N3CCN(C4CN(C(=O)c5ccc(Nc6ncc7c(n6)-c6ccc(Cl)cc6C(c6c(F)cccc6F)=NC7)cc5)C4)CC3)cc2)C(=O)N1 [Compound A19] | < 1000
20 | COc1cc(Nc2ncc3c(n2)-c2ccc(Cl)cc2C(c2c(F)cccc2OC)=NC3)ccc1C(=O)N1CC2(CCN(c3ccc(N4CCC(=O)NC4=O)cc3)CC2)C1 [Compound A42] | > 10000
21 | COc1cc(Nc2ncc3c(n2)-c2ccc(Cl)cc2C(c2c(F)cccc2OC)=NC3)ccc1C(=O)NC1CC(C#Cc2cccc(N3CCC(=O)NC3=O)c2)C1 (centres unmarked) [Compound A50] | < 1000
22 | O=C1CCN(c2cccc(C#CC34CC(NC(=O)c5ccc(Nc6ncc7c(n6)-c6ccc(Cl)cc6C(c6c(F)cccc6F)=NC7)cc5)(C3)C4)c2)C(=O)N1 [Compound A76] | 1000 to 10000

Test system: H82 cells
Assay: cells
Format: cell-based
Conditions: Homo sapiens, NCI-H82; H82 cells, 4000 cells/well, CellTiter-Glo; read-out: IC50 in H82 Cells
Summary of the method: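 H82 cells in RPMI1640 + 10% FBS exposed to compound (0.1% DMSO final) for 6 days at 37 °C, 5% CO2. Viability read by CellTiter-Glo ATP luminescence, normalised to DMSO and medium controls; IC50 from nonlinear regression of the dose–survival curve.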

Row | SMILES | IC50 [nM]
23 | COc1cccc(F)c1C1=NCc2cnc(Nc3ccc(N4CC(CN5CCN(c6ccc(N7CCC(=O)NC7=O)cn6)CC5)C4)cc3)nc2-c2ccc(Cl)cc21 [Compound A253] | < 1000
24 | O=C1CCN(c2ccc(N3CCC(C4CCN(C(=O)C56CC(Nc7ncc8c(n7)-c7ccc(Cl)cc7C(c7c(F)cccc7F)=NC8)(C5)C6)CC4)CC3)nc2)C(=O)N1 [Compound A273] | < 1000
25 | O=C1CCN(c2cccc(N3CCN(CCC#Cc4cccc(Nc5ncc6c(n5)-c5ccc(Cl)cc5C(c5c(F)cccc5F)=NC6)c4)CC3)c2)C(=O)N1 [Compound A100] | < 1000
26 | O=C1CCN(c2ccc(N3CCC(CN4CCN(C56CC(Nc7ncc8c(n7)-c7ccc(Cl)cc7C(c7c(F)cccc7F)=NC8)(C5)C6)CC4)C3)nc2)C(=O)N1 (centres unmarked) [Compound A231] | < 1000
27 | O=C1CCN(c2ccc(N3CC(CN4CCN(C56CC(Nc7ncc8c(n7)-c7ccc(Cl)cc7C(c7c(F)cccc7F)=NC8)(C5)C6)CC4)C3)nc2)C(=O)N1 [Compound A219] | < 1000
28 | Cc1c(N2CC(CN3CCc4ccc(Nc5ncc6c(n5)-c5ccc(Cl)cc5C(c5c(F)cccc5F)=NC6)cc4C3)C2)cccc1N1CCC(=O)NC1=O [Compound A176] | < 1000
29 | O=C1CCN(c2cccc(C3CN(CC#Cc4cccc(Nc5ncc6c(n5)-c5ccc(Cl)cc5C(c5c(F)cccc5F)=NC6)c4)C3)c2)C(=O)N1 [Compound A126] | < 1000
